Measurements reported in US9347888B2, “Detection of bacteria exhibiting a resistance to carbapenems” (BIOMERIEUX, priority 2011, dated 2016).

Tests used:
[1] = Test of stability of the different carbapenems in agar medium; format: physicochemical; conditions: agar media kept at 2 to 8°C up to 9 weeks (63 days); strains seeded D0, D14, D42, D63
Experimental: Agar media modelled on those indicated supra were prepared and kept at a temperature of between 2 and 8° C. for up to 9 weeks (63 days).
ESBL and AmpC strains, and carbapenemases from class B, IR or KPC, were seeded on these different media on D0, D14, D42 and D63.

[2] = system: carbapenemase-producing strains; assay: Faropenem on pure strains, agar dilution: detection sensitivity; format: cell-based, Gram-negative bacteria; conditions: medium containing 16 mg/L faropenem; for Detection sensitivity (strains detected/strains): 24 h 37°C
Experimental: (§1) Seventy-nine strains of Gram-negative bacteria, of which 69 are enterobacteria and 10 non-enterobacteria (non-fermenting bacteria), whose resistance characteristics are set out in Table I, were tested on media containing different concentrations of faropenem in order to establish the sensitivity/specificity of each formulation. The dishes were read after 24 hours of incubation at 37° C.
(§2) The medium used is a conventional agar medium comprising at least one chromogenic substrate, and supplemented with faropenem at the following concentrations:
(§3) The media are divided into 120×120 square dishes.
(§4) The seeding is performed from 24-h pre-cultures at 37° C. on trypcase soy agar.
(§5) For each strain, a 0.5 McF suspension in physiological water is produced and then diluted 1/100.
(§6) Each suspension is spot-seeded (1 to 2 μL) on each medium with the aid of a multi-point inoculator according to the Agar Dilution (AD) method.
(§7) Readings are performed after 24 hours of incubation at 37° C.
(§8) For interpretation, the following cases are considered as corresponding to growth inhibition: • absence of bacterial growth • number of colonies≦3
(§9) The presence of 4 colonies or more is considered to be positive growth.

[3] = system: strains with other types of resistance (ESBL or cephalosporinase, impermeability resistance); assay: Faropenem on pure strains, agar dilution: detection specificity; format: cell-based, Gram-negative bacteria; conditions: medium containing 16 mg/L faropenem; for Detection specificity (strains inhibited/strains): 24 h 37°C
Experimental: as §1, §2, §3, §4, §5, §6, §7, §8, §9

[4] = system: KPC strains; assay: Faropenem on pure strains, agar dilution: MIC and growth of KPC strains; format: cell-based, Gram-negative bacteria
Experimental: as §1, §2, §3, §4, §5, §6, §7, §8, §9

[5] = system: IR (impermeability resistance) strains; assay: Impact of cloxacillin and/or PAbetaN with faropenem, agar dilution; format: cell-based, Gram-negative bacteria
Experimental: (§10) Seventy-seven strains of Gram-negative bacteria, of which 71 are enterobacteria and 6 non-enterobacteria (non-fermenting bacteria), whose resistance characteristics are set out in Table VIII, were tested on media containing different concentrations of faropenem and cloxacillin, with or without PAbetaN, in order to establish the sensitivity and the specificity of each formulation. The tested media are described in Table IX.
(§11) The chromogenic media are divided into 120×120 square dishes.
(§12) The seeding is performed from 24-h pre-cultures at 37° C. on trypcase soy agar. For each strain, a 0.5 McF suspension in physiological water is produced. Each suspension is spot-seeded (1 to 2 μL) on each medium with the aid of a multi-point inoculator according to the Agar Dilution (AD) method. Readings are performed after 24 hours of incubation at 37° C.
(§13) An absence of bacterial growth or a number of colonies which is less than or equal to 3 are considered as corresponding to growth inhibition. The presence of 4 colonies or more is considered to be positive growth.

[6] = system: Total carbapenemases; assay: as above; format: cell-based, Gram-negative bacteria; conditions: cloxacillin alone (no PAbetaN), at the 3 concentrations of faropenem tested
Experimental: as §10, §11, §12, §13

SMILES: C[C@@H](O)[C@H]1C(=O)N2C(C(=O)O)=C(S[C@@H]3CN[C@H](CNS(N)(=O)=O)C3)[C@H](C)[C@H]12 [doripenem]
- stability in agar medium [1]: close to that of ertapenem, and greater than that of imipenem and of meropenem

SMILES: C[C@@H](O)[C@H]1C(=O)N2C(C(=O)O)=C([C@H]3CCCO3)S[C@H]12 [faropenem]
- Detection sensitivity ([2]; inoculum 0.5 McF): 91.4%
- Detection sensitivity ([2]; inoculum 0.5 McF diluted 1/100): 91.4%
- Detection sensitivity (strains detected/strains) ([2]; inoculum 0.5 McF diluted 1/100): 53/58
- Detection sensitivity (strains detected/strains) ([2]; inoculum 0.5 McF): 53/58
- Detection specificity ([3]; inoculum 0.5 McF): 66.7%
- Detection specificity ([3]; inoculum 0.5 McF diluted 1/100): 71.4%
- Detection specificity (strains inhibited/strains) ([3]; inoculum 0.5 McF diluted 1/100): 15/21
- Detection specificity (strains inhibited/strains) ([3]; inoculum 0.5 McF): 14/21
- KPC strains developing on the medium ([4]; faropenem at 16 mg/L): All of the KPC strains develop
- MIC of the totality of KPC strains ([4]; whatever the inoculum tested, unit not printed (media in mg/L)): > 32
- stability in agar medium [1]: close to that of ertapenem, and greater than that of imipenem and of meropenem
- No. IR developing (/19) ([5]; PAbetaN 0, cloxacillin 0, faropenem 8 mg/L): 16
- No. IR developing (/19) ([5]; PAbetaN 0, cloxacillin 0, faropenem 16 mg/L): 15
- No. IR developing (/19) ([5]; PAbetaN 0, cloxacillin 0, faropenem 32 mg/L): 10
- No. IR developing (/19) ([5]; PAbetaN 0, cloxacillin 50, faropenem 8 mg/L): 14
- No. IR developing (/19) ([5]; PAbetaN 0, cloxacillin 50, faropenem 16 mg/L): 9
- No. IR developing (/19) ([5]; PAbetaN 0, cloxacillin 50, faropenem 32 mg/L): 4
- No. IR developing (/19) ([5]; PAbetaN 0, cloxacillin 100, faropenem 8 mg/L): 11
- No. IR developing (/19) ([5]; PAbetaN 0, cloxacillin 100, faropenem 16 mg/L): 6
- No. IR developing (/19) ([5]; PAbetaN 0, cloxacillin 100, faropenem 32 mg/L): 2
- No. IR developing (/19) ([5]; PAbetaN 0, cloxacillin 200, faropenem 8 mg/L): 11
- No. IR developing (/19) ([5]; PAbetaN 0, cloxacillin 200, faropenem 16 mg/L): 6
- No. IR developing (/19) ([5]; PAbetaN 0, cloxacillin 200, faropenem 32 mg/L): 1
- No. IR developing (/19) ([5]; PAbetaN 25, cloxacillin 50, faropenem 8 mg/L): 11
- No. IR developing (/19) ([5]; PAbetaN 25, cloxacillin 50, faropenem 16 mg/L): 10
- No. IR developing (/19) ([5]; PAbetaN 25, cloxacillin 50, faropenem 32 mg/L): 5
- No. IR developing (/19) ([5]; PAbetaN 25, cloxacillin 100, faropenem 8 mg/L): 10
- No. IR developing (/19) ([5]; PAbetaN 25, cloxacillin 100, faropenem 16 mg/L): 5
- No. IR developing (/19) ([5]; PAbetaN 25, cloxacillin 100, faropenem 32 mg/L): 1
- No. IR developing (/19) ([5]; PAbetaN 25, cloxacillin 200, faropenem 8 mg/L): 7
- No. IR developing (/19) ([5]; PAbetaN 25, cloxacillin 200, faropenem 16 mg/L): 1
- No. IR developing (/19) ([5]; PAbetaN 25, cloxacillin 200, faropenem 32 mg/L): 1
- impact on IR strains ([5]; faropenem alone, up to a concentration of 16 mg/L): little impact

SMILES: Cc1onc(-c2ccccc2Cl)c1C(=O)N[C@@H]1C(=O)N2[C@@H]1SC(C)(C)[C@@H]2C(=O)O [cloxacillin]
- additional IR strains inhibited ([5]; addition of 50 mg/L cloxacillin at 16 mg/L of faropenem): 6
- additional IR strains inhibited ([5]; addition of 200 mg/L cloxacillin at 16 mg/L of faropenem): 9
- impact on the growth of the carbapenemase-producing strains [6]: little or no impact
